# Key:
# [1] = In vivo pharmacokinetics assay in mice via IV and PO; parameters: species or system ICR mice; settings: for Mean Concentration In brain / Mean Concentration In plasma / B/P ratio: PO (Group 4 design: 30 mg/kg); for B/P ratio: brain to plasma, one value for 2 h and 4 h
# Protocol: Pharmacokinetics assay for test compounds was performed in mice via IV and PO.
# Test compound solution was prepared on the day of administration.
# Solvent: IV+PO: 5% DMSO+10% Soultol+85% H2O or saline
# Species: ICR mice; SPF level.
# Source: Beijing Vital River Laboratory Animal Technology Co., Ltd.
# Animal selection: Males. No random grouping
# Weighed before dosing, calculated dosage according to body weight. For Groups 1-3, the drug was administered intravenously or intragastrically. For Group 4, the drug administered intragastrically.
# For Groups 1-3, at 0.083 h, 0.25 h, 0.5 h, 1 h, 2 h, 4 h, 6 h, 8 h, 24 h, after administration. For Group 4, at 2 h and 4 h after administration.
# Blood was collected through the cheeks. For each sample, about 0.05 mL of blood was collected and was added heparin sodium or EDTA-2K as anticoagulant, and was placed on wet ice.
# The blood samples were collected and placed on ice and was centrifuged within 1 hour (centrifugation: 6000 g, 3 minutes, 2-8° C.) to separate plasma. Plasma samples were stored in a −80° C. refrigerator prior to analysis.
# The pharmacokinetic parameters were calculated using Phoenix WinNonlin8.2.0 based on the blood concentration data at different time points, and AUC0-t, AUC0-∞, MRT0-∞, Cmax, Tmax, and T1/2 and mean values and standard deviations thereof were provided.
# [2] = test system: human colon cancer cell line HCT116 (WT); test: In vivo efficacy assay, subcutaneous HCT116 WT xenograft; parameters: species or system Balb/C nude female mouse; settings: 15 mg/kg PO/QD, 21 days, Balb/C nude mice
# Protocol: The antitumor effect or MTAP/MTA selectivity of the compounds provided herein in the subcutaneously transplanted Balb/C nude female mouse model of human colon cancer cell line HCT116 (WT and MTAP KO) was tested.
# Cell viability and cell count were determined. Cell count of the suspension was adjusted to 1×10^8 cells/mL and mixed with Matrigel in a 1:1 volume. Each mouse for this study were inoculated subcutaneously in the right front flank region with 5×10^6 tumor cells (0.1 mL) for tumor development.
# The randomization started when the mean tumor size reaches approximately 100-150 mm^3. Mice inoculated with HCT116 WT cells were randomized on day 7. Mice inoculated with HCT116 MTAP KO cells were randomized on day 8. All animals were randomly allocated to 5 study groups, each group consisted of 8 animals. Randomization was performed based on randomized block design.
# Tumor volume was measured twice per week in two dimensions using a caliper, and the volume was expressed in mm^3 using the formula: “V=(L×W×W)/2”, where V is tumor volume, L is tumor length (the longest tumor dimension) and W is tumor width (the longest tumor dimension perpendicular to L).
# [3] = test system: cryopreserved hepatocytes; test: Hepatic metabolic stability (HMS) assay, human hepatocytes; settings: for T1/2 (hepatocytes) H / CLint (liver) H: human hepatocytes; for T1/2 (hepatocytes) H: 1 μM test compound (3 μM positive control); for CLint (liver) H: scaled to liver; for CLint (hep) H: human, hepatocytes
# Protocol: 1) 10 mM test compounds were provided.
# (§1) 2) 30 mM positive control stock solutions: Dissolved accurate amount of positive control compounds in dimethyl sulfoxide (DMSO).
# (§2) 3) 1000× Stock Solution: Diluted 10 mM test compounds and 30 mM positive control compounds to 1 mM and 3 mM with DMSO in 96-well plates.
# (§3) 4) 100× Dosing Solution: Diluted 1 mM test compounds and 3 mM positive control compounds to 100 μM and 300 μM dosing solutions with ACN.
# (§4) 5) Preparation of 0.5×10^6/mL cells suspension: cryopreserved cells were thawed, isolated and suspended in Incubation Medium, then diluted with pre-warmed Incubation Medium to 0.5×10^6 cells/mL.
# (§5) 6) Add 198 μL of pre-warmed cell suspensions in 96-well plates.
# (§6) 7) Preparation of Quenching Plate: Transfer 125 μL of stop solution in a set of pre-labeled 96-well plates.
# (§7) 8) Spike 2 μL dosing solution to each well of 96-well plates in duplicate.
# (§8) 9) For TO Samples, mix to achieve a homogenous suspension for about 1 min, then immediately transfer 25 μL of each sample into well containing 125 μL of ice-cold stop solution followed by mixing.
# (§9) 10) Incubate all plates at 37° C. in a 95% humidified incubator at 5% CO2 to start the reactions with constant shaking.
# (§10) 11) At 15, 30, 60 and 90 min, mix samples and then transfer 25 μL of each sample at each time point to well containing 125 μL of ice-cold stop solution followed by mixing.
# (§11) 12) Medium Control (MC) sample plates (labeled as TO-MC and T90-MC) are prepared in the same way as cell incubation except that medium was used instead of cell suspension.
# (§12) 13) At each corresponding time point, stop the reactions by removing the plates from incubator and mixing with 125 μL of ice-cold stop solution.
# (§13) 14) Vortex the plates immediately on a plate shaker at 600 rpm for 10 minutes. Then, centrifuge all sample plates at 3220×g for 20 min at 4° C.
# (§14) 15) After centrifugation, 80 μL/well of supernatant in the sample plates are transferred to another set of pre-labeled 96-well plates which containing 240 μL of ultra pure water according to the plate map.
# (§15) 16) Analytical plates are sealed and store at 4° C. until LC-MS/MS analysis.
# (§16) The remaining percents of test articles after incubation were calculated by the follow equations:
# (§17) Use the following equation of first order kinetics to calculate T1/2 and CLint:
# [4] = test system: HCT116 homozygous MTAP knockout cells; test: HCT116 cell proliferation assay (CTG), MTAP knockout cells; format: cell-based, human; settings: Cell Titer-Glo
# Protocol: Control samples were analyzed in parallel.
# On Day 0, 150 HCT116 parental or HCT116 homozygous MTAP knockout cells were seeded in 96-well plates in McCoy's 5A medium containing 10% fetal bovine serum and pen/strep. And the cells were incubated overnight at 37° C. and 5% CO2.
# On Day 1, cells were treated with 9-point serial dilution of compound, using a top concentration of 50 μM, 1:5 serial dilution steps and, a DMSO-only control. And cells were incubated for 6 days.
# On Day 7, cell viability was measured using a CTG assay Kit (Cell Titer-Glo; Promega, catalog no.: G7573) in accordance with the manufacturer's instructions. Assays plates were read on a EnVision™ Multilabel Reader using the Ultra-Sensitive luminescence model. The data were analyzed by GraphPad Prism 5.0 software, and the dose-effect curve was obtained by fitting the data using nonlinear S-curve regression, from which the IC50 value was calculated.
# [5] = test system: cryopreserved hepatocytes; test: Hepatic metabolic stability (HMS) assay, cynomolgus monkey hepatocytes; settings: for T1/2 (hepatocytes) C / CLint (liver) C: cynomolgus monkey hepatocytes; for T1/2 (hepatocytes) C: 1 μM test compound (3 μM positive control); for CLint (liver) C: scaled to liver; for CLint (hep) C: cynomolgus monkey, hepatocytes
# Protocol: 1) 10 mM test compounds were provided.
# as §1, §2, §3, §4, §5, §6, §7, §8, §9, §10, §11, §12, §13, §14, §15, §16, §17
# [6] = molecular target: hERG potassium ion channel (Homo sapiens (Human), UniProt Q12809); test: hERG potassium ion channel inhibition assay (automated patch-clamp, CHO-hERG cells); format: cell-based; settings: Qpatch, highest test concentration 40.00 μM
# hERG potassium ion channel, sequence (Q12809 whole entry): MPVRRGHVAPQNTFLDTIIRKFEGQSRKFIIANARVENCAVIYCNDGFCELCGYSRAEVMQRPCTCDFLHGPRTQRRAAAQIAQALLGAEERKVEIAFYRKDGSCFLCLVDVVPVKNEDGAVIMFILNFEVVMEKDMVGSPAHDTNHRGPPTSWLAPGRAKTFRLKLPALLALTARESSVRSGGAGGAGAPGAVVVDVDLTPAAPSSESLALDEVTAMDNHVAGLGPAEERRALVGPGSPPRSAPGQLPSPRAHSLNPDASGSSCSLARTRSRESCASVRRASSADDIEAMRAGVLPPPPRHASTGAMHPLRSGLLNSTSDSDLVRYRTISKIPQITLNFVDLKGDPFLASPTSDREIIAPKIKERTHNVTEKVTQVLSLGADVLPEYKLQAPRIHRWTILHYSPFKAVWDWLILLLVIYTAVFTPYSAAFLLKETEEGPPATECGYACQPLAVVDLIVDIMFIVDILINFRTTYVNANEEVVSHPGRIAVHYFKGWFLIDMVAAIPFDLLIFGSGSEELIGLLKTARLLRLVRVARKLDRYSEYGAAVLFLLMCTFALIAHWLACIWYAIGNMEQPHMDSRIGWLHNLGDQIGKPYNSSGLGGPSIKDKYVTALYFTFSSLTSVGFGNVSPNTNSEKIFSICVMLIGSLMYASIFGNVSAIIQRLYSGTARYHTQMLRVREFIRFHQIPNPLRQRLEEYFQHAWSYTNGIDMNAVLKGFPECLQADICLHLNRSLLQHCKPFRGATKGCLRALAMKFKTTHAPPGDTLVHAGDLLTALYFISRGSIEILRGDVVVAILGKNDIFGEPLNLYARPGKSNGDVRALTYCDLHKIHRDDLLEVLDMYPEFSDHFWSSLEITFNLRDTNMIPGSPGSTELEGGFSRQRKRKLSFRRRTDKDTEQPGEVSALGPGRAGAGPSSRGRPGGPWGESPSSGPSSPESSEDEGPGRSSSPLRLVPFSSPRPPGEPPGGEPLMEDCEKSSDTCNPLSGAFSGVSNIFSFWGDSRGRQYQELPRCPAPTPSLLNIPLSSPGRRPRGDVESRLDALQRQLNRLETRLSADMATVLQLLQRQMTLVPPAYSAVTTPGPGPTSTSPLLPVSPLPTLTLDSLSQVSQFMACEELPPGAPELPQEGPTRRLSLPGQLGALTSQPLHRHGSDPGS
# Protocol: Drug-hERG interaction was measured by automated patch-clamp methods, with cisapride as positive control.
# 1.1 CHO-hERG cells were cultured in 175 cm^2 culture bottle. After the cell density grew to 60-80%, the culture medium was removed, washed with 7 mL of phosphate buffered saline (PBS), and then digested with 3 mL Detachin.
# 1.2 After the digestion was complete, 7 mL culture solution was added for neutralization, and then centrifuged, the clear solution was sucked, and 5 mL culture solution was added for re-suspension to ensure the cell density was 2˜5×10^6/mL.
# The process of single-cell high-impedance sealing and whole-cell pattern formation was all automatically completed by Qpatch instrument. After obtaining whole-cell recording mode, the cell was pinching at −80 millivolts. Before giving a 5-second +40 millivolt depolarization stimulus, a 50-millisecond pre-voltage of −50 millivolts was given first, and then repolarized to −50 millivolts for 5 seconds. Go back to −80 millivolts. This voltage stimulation was applied every 15 seconds, recorded for 2 minutes, then extracellular fluid was given and recorded for 5 minutes, and then the administration process began. The concentration of test compound was given from the lowest test concentration for 2.5 minutes per test concentration. After continuous administration of all concentrations, the positive control 3 μM cisapride was given. At least 2 cells were tested for each concentration (n≥2).
# 4.1 The compound mother liquor was diluted with DMSO, and 10 μL compound stock solution was added to 20 μL DMSO solution, which was continuously 3-fold diluted to 6 DMSO-concentrations.
# 4.2 4 μL of test compounds in 6 DMSO-concentrations were added to 396 μL extracellular solution and were 100-fold diluted to 6 intermediate concentrations. Then, 80 μL of test compounds in 6 intermediate concentrations were added to 320 μL extracellular solution and were 5-fold diluted to the final concentration to be tested.
# 4.3 The highest test concentration was 40.00 μM, and six test concentrations were 40.00, 13.33, 4.44, 1.48, 0.49, 0.16 μM, respectively.
# 4.5 Entire dilution process for test compound preparation was performed by Bravo instrument.
# The experimental data were analyzed by GraphPad Prism 5.0 software.
SMILES,Cl ([1]; IV 1.0 mg/kg) [mL/min/kg],AUC0-t ([1]; PO 10 mg/kg) [ng·h/mL],T1/2 ([1]; PO 10 mg/kg) [h],"C8 h ([1]; PO 10 mg/kg, plasma) [ng/mL]","C24 h ([1]; PO 10 mg/kg, plasma) [ng/mL]","Cmax ([1]; PO 10 mg/kg, plasma) [ng/mL]",Tumor growth inhibition (TGI) HCT 116 WT [2] [%],T1/2 (hepatocytes) H [3] [h],CLint (liver) H [3] [mL/min/kg],CLint (hep) H [3] [μL/min/10^6],IC50 ([4]; 6 days treatment) [µM],T1/2 (hepatocytes) C [5] [h],CLint (liver) C [5] [mL/min/kg],CLint (hep) C [5] [μL/min/10^6],IC50 [6] [µM],AUC0-t ([1]; PO 30 mg/kg) [ng·h/mL],T1/2 ([1]; PO 30 mg/kg) [h],"C8 h ([1]; PO 30 mg/kg, plasma) [ng/mL]","C24 h ([1]; PO 30 mg/kg, plasma) [ng/mL]","Cmax ([1]; PO 30 mg/kg, plasma) [ng/mL]",further results
CN(C(=O)c1cc2c(cn1)nc(N)c1cncn12)C1CC(F)(F)c2cc(C(F)(F)F)ccc21 (centres unmarked) [Compound 24],2.41,44942,4.41,2598,186,3355,62,>3.613,<17.8,<6.4,0.052,2.193,37.9,10.5,24.8,,,,,,"AUC0-t ([1]; PO 50 mg/kg): 130284 ng·h/mL; T1/2 ([1]; PO 50 mg/kg): 3.23 h; C8 h ([1]; PO 50 mg/kg, plasma): 4983 ng/mL; C24 h ([1]; PO 50 mg/kg, plasma): 178 ng/mL; Cmax ([1]; PO 50 mg/kg, plasma): 15733 ng/mL; Mean Concentration In brain ([1]; 2 h): 3132 ± 1647 ng/g; Mean Concentration In plasma ([1]; 2 h): 6327 ± 2604 ng/mL; Mean Concentration In brain ([1]; 4 h): 3084 ± 145 ng/g; Mean Concentration In plasma ([1]; 4 h): 5983 ± 361 ng/mL; B/P ratio [1]: 51%"
CN(C(=O)c1ccc2nc(N)c3cncn3c2c1)[C@@H]1COc2cc(C(F)(F)F)ccc21 [Compound 12],,,,,,,,,,,,,,,5.38,,,,,,"clearance ([1]; male, ICR, mouse, plasma, IV 1.0 mg/kg): 3.48 mL/min/kg; IC50 ([4]; Homo sapiens, HCT-116, 6 days treatment): 0.043 µM"
CN(C(=O)c1cc2c(cn1)nc(N)c1cncn12)C1COc2cc(C(F)(F)F)ccc21 (centres unmarked) [Compound 21],3.94,43397,6.67,2537,415,2820,59,>3.613,<17.8,<6.4,,>3.613,<23,<6.4,13.6,124997,6.45,6880,1257,8710,
CN(C(=O)c1cc2c(cn1)nc(N)c1cncn12)C1COc2cc(C(F)(F)F)ccc21 (centres unmarked) [Compound 19],4.38,32782,4.88,1833,178,2620,74,>3.613,<17.8,<6.4,0.039,3.552,23.4,6.5,13.5,94249,5.26,4817,540,8117,
CN(C(=O)c1ccc2nc(N)c3cncn3c2c1)C1COc2cc(C(F)(F)F)ccc21 (centres unmarked) [Compound 17],3.10,50800,5.07,2287,257,4627,66,,,,0.032,,,,12.8,174589,4.87,8260,860,16233,"AUC0-t ([1]; IV 1.0 mg/kg): 5219 ng·h/mL; T1/2 ([1]; IV 1.0 mg/kg): 5.05 h; Cmax ([1]; IV 1.0 mg/kg, plasma): 965 ng/mL; Mean Concentration In brain ([1]; 2 h): 3308 ± 1056 ng/g; Mean Concentration In plasma ([1]; 2 h): 14843 ± 4945 ng/mL; Mean Concentration In brain ([1]; 4 h): 2668 ± 224 ng/g; Mean Concentration In plasma ([1]; 4 h): 13667 ± 1365 ng/mL; B/P ratio [1]: 21%"

# Reference: patent publication US20240262835A1, “PRMT5 INHIBITING COMPOUNDS AND USES THEREOF” (ANTENGENE DISCOVERY LIMITED, priority 2023, published 2024)
